# Source: ChEMBL document CHEMBL5356977, “Exploration of macrocyclic peptide binders to the extracellular CRD domain of human receptor tyrosine kinase-like orphan receptor 1 (ROR1)” (Bioorg Med Chem Lett, 2024)
# The source made the active and inactive calls. The calls are words filed in the database; no cut-off is given here. Numbered stars: 1 amine (or outer) side, 2 acyl side, 3 side chain; on linkers, the order of the positions; unused ones are H or OH. Bridge positions count the residues as written; N and C are the ends. Square brackets hold non-standard residues; d marks the D form. Peptide text beside a SMILES is read from it. * marks the point of attachment. X2 = CCCN(C(=O)[C@@H](NC(=O)[C@H]1CCCCN1C)[C@@H](C)CC)[C@H](C[C@@H](OC(C)=O)c1nc(C(=O)N[C@@H](Cc2ccc(NC(=O)[C@H](CCCNC(N)=O)NC(=O)[C@@H](NC(=O)CCCCCN3C(=O)CC(*)C3=O)C(C)C)cc2)C[C@H](C)C(=O)O)cs1)C(C)C; Bip = N[C@@H](Cc1ccc(-c2ccccc2)cc1)C(=O)O; X1 = CN([C@@H](CC(N)O)C(=O)[*:2])[*:1]; NMeF = CN[C@@H](Cc1ccccc1)C(=O)O; Hpg = N[C@H](C(=O)O)c1ccc(O)cc1; Sar = CNCC(=O)O
# Legend:
# [1] = molecular target: T1, Inactive tyrosine-protein kinase transmembrane receptor ROR1 (Homo sapiens, UniProt Q01973); assay: Binding affinity to full length human His-tagged ROR1 (937 residues ) assessed as dissociation constant by SPR analysis
# [2] = molecular target: Tyrosine-protein kinase transmembrane receptor ROR2 (Homo sapiens, UniProt Q01974); assay: Binding affinity to full length human His-tagged ROR2 (943 residues ) assessed as dissociation constant by SPR analysis
# [3] = molecular target: T1, Inactive tyrosine-protein kinase transmembrane receptor ROR1; assay: Induction of ROR1 internalization in human 786-0; assay type: cell-based
# [4] = molecular target: T1, Inactive tyrosine-protein kinase transmembrane receptor ROR1; assay: Induction of ROR1 internalization in human MIA PaCa-2; assay type: cell-based
# [5] = molecular target: T1, Inactive tyrosine-protein kinase transmembrane receptor ROR1; assay: Induction of ROR1 internalization in human 786-0 cells at 4 to 37 degreeC; assay type: cell-based
# [6] = molecular target: T1, Inactive tyrosine-protein kinase transmembrane receptor ROR1; assay: Binding affinity to ROR1 (unknown origin)
# [7] = molecular target: T1, Inactive tyrosine-protein kinase transmembrane receptor ROR1; assay: Binding affinity to human ROR1 harbouring IGt2 domain at 100 nM relative to control
# [8] = molecular target: T1, Inactive tyrosine-protein kinase transmembrane receptor ROR1; assay: Binding affinity to human ROR1 harbouring CRD domain at 100 nM relative to control
# [9] = molecular target: T1, Inactive tyrosine-protein kinase transmembrane receptor ROR1; assay: Binding affinity to human ROR1 expressed in HEK293 cells by cell based assay
# [10] = Proteolytic stability in mouse serum assessed as half life; assay type: ADME, cell-free
# [11] = […] stability in mouse serum assessed as half life; assay type: ADME, cell-free
# MIA PaCa-2 = assay: Induction of apoptosis in human MIA PaCa-2 cells assessed as activation of caspase3/7; assay type: functional, cell-based
# [12] = molecular target: T1, Inactive tyrosine-protein kinase transmembrane receptor ROR1; assay: Induction of ROR1 internalization in human MDA-MB-231; assay type: cell-based
# ASPC1 = assay: Antiproliferative activity in human ASPC1 cells; assay type: functional, cell-based
# JeKo-1 = assay: Antiproliferative activity in human JeKo-1 cells; assay type: functional, cell-based
# HEK293 = assay: Antiproliferative activity in HEK293 cells harbouring ROR1; assay type: toxicity, cell-based; conditions: Homo sapiens
# 786-0 = assay: Antiproliferative activity in human 786-0 cells; assay type: functional, cell-based
# [13] = Stability in human serum assessed as half life; assay type: ADME, cell-free
# [14] = Stability in mouse serum assessed as half life; assay type: ADME, cell-free
# Chain of Tyrosine-protein kinase transmembrane receptor ROR2 (Q01974 whole entry): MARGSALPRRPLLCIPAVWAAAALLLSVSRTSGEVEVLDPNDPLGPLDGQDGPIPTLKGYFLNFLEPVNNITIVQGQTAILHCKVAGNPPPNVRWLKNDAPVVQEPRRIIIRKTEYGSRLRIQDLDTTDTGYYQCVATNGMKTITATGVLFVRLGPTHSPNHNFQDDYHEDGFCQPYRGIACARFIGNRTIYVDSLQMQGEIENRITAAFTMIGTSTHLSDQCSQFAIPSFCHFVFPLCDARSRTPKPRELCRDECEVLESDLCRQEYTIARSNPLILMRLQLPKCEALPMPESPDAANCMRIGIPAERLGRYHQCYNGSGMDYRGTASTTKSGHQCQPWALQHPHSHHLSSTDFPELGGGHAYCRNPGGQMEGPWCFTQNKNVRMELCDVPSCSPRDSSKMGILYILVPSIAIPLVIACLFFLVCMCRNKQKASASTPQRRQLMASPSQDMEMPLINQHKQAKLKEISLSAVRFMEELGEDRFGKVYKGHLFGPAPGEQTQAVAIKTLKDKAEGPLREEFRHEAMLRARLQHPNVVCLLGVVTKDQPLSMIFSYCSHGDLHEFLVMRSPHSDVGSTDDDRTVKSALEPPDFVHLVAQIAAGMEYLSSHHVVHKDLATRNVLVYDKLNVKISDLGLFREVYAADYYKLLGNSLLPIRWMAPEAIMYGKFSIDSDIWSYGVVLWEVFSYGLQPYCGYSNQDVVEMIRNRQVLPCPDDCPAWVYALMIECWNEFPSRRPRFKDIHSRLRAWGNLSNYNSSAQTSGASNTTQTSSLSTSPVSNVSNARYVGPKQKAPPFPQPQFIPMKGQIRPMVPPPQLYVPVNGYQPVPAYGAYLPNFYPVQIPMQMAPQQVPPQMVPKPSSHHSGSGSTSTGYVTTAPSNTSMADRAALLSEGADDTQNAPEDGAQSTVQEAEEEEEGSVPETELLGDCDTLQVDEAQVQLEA
# T1 sequence (Q01973 whole entry): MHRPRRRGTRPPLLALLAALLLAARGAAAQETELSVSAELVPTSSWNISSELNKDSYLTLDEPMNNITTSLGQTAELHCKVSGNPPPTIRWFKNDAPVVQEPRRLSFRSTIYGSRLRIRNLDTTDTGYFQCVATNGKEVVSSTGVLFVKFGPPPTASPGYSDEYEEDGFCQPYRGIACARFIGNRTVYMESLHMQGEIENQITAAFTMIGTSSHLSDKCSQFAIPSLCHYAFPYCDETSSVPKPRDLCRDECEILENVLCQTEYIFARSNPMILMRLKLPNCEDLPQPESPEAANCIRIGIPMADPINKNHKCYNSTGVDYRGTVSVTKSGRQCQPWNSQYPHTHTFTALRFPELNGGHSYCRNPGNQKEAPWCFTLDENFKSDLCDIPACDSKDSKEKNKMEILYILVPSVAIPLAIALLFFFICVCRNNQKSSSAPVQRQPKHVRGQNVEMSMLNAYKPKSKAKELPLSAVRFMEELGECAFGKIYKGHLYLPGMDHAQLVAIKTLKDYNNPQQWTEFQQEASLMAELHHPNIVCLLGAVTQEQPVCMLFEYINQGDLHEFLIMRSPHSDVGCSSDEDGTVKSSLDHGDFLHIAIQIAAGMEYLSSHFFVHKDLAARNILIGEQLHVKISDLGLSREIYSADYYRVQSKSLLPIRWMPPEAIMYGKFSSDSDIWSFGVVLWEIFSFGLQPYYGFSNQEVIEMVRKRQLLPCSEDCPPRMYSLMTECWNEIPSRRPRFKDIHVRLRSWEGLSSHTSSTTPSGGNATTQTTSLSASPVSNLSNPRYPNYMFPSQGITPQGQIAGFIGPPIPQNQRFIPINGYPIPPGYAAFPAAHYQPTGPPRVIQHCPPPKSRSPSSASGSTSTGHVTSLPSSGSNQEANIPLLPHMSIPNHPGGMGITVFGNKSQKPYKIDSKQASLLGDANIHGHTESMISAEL
smiles,measurement,setting,value
CC(C)C[C@@H]1NC(=O)[C@H](Cc2ccc(O)cc2)NC(=O)[C@H](Cc2ccccc2)NC(=O)CSC[C@@H](C(=O)NCC(=O)NCC(=O)NCC(=O)N[C@H](CCCCNC(=O)c2ccc3c(c2)C(=O)OC32c3ccc(O)cc3Oc3cc(O)ccc32)C(N)=O)NC(=O)[C@H](CC(C)C)NC(=O)[C@H](Cc2ccccc2)N(C)C(=O)[C@H](Cc2ccc(O)cc2)NC(=O)[C@H](Cc2c[nH]c3ccccc23)NC(=O)CNC(=O)[C@H](CO)NC(=O)[C@H](Cc2ccc(O)cc2)NC(=O)[C@H](C(C)C)NC1=O,Kd,[1],34 nM
same,Kd,[2],> 100 nM
same,Activity,[3],inactive
same,Activity,[4],inactive
CC(C)C[C@@H]1NC(=O)[C@H](CC(N)O)N(C)C(=O)[C@H](Cc2ccccc2)NC(=O)CNC(=O)[C@H](Cc2ccc(O)cc2)NC(=O)[C@H](Cc2ccccc2)NC(=O)CSC[C@@H](C(N)=O)NC(=O)[C@H](Cc2c[nH]c3ccccc23)NC(=O)[C@H](Cc2ccc(O)cc2)NC1=O (some centres not stated) ({CH2CO}-FYGF[X1]LYWC-NH2; thioether N-9),Kd,[1],22 nM
same,Kd,[2],> 11 nM
same,Activity,[5],Active
same,IC50,[6],66 nM
same,Activity,[7],75%
same,Activity,[8],125%
CC(C)C[C@@H]1NC(=O)[C@H](Cc2ccc(O)cc2)NC(=O)[C@H](Cc2ccccc2)NC(=O)CSC[C@@H](C(=O)NCC(N)=O)NC(=O)[C@H](CC(C)C)NC(=O)[C@H](Cc2ccccc2)N(C)C(=O)[C@H](Cc2ccc(O)cc2)NC(=O)[C@H](Cc2c[nH]c3ccccc23)NC(=O)CNC(=O)[C@H](CO)NC(=O)[C@H](Cc2ccc(O)cc2)NC(=O)[C@H](C)NC1=O ({CH2CO}-FYLAYSGWY[NMeF]LCG-NH2; thioether N-12),IC50,[9],12.3 nM
CC(C)C[C@@H]1NC(=O)[C@H](Cc2ccc(O)cc2)NC(=O)[C@H](Cc2ccccc2)NC(=O)CSC[C@@H](C(=O)NCC(N)=O)NC(=O)[C@H](CC(C)C)NC(=O)[C@H](Cc2ccccc2)N(C)C(=O)[C@H](Cc2ccc(O)cc2)NC(=O)[C@H](Cc2c[nH]c3ccccc23)NC(=O)CNC(=O)[C@H](CC(=O)O)NC(=O)[C@H](Cc2ccc(O)cc2)NC(=O)[C@H](C(C)C)NC1=O ({CH2CO}-FYLVYDGWY[NMeF]LCG-NH2; thioether N-12),IC50,[9],14.4 nM
CC(C)C[C@@H]1NC(=O)[C@H](Cc2ccc(O)cc2)NC(=O)[C@H](Cc2ccccc2)NC(=O)CSC[C@@H](C(=O)NCC(N)=O)NC(=O)[C@H](C(C)C)NC(=O)[C@H](Cc2ccccc2)N(C)C(=O)[C@H](c2ccc(O)cc2)NC(=O)[C@H](Cc2c[nH]c3ccccc23)NC(=O)CNC(=O)[C@H](CC(N)=O)NC(=O)[C@H](Cc2ccc(O)cc2)NC(=O)[C@H](C(C)C)NC1=O ({CH2CO}-FYLVYNGW[Hpg][NMeF]VCG-NH2; thioether N-12),IC50,[9],5.3 nM
CC(C)C[C@@H]1NC(=O)[C@H](Cc2ccc(O)cc2)NC(=O)[C@H](Cc2ccccc2)NC(=O)CSC[C@@H](C(=O)NCC(N)=O)NC(=O)[C@H](CC(C)C)NC(=O)[C@H](Cc2ccccc2)N(C)C(=O)[C@H](Cc2ccc(O)cc2)NC(=O)[C@H](Cc2c[nH]c3ccccc23)NC(=O)CNC(=O)[C@H](CCC(N)=O)NC(=O)[C@H](Cc2ccc(O)cc2)NC(=O)[C@H](C(C)C)NC1=O ({CH2CO}-FYLVYQGWY[NMeF]LCG-NH2; thioether N-12),IC50,[9],7.2 nM
CC(C)C[C@@H]1NC(=O)[C@H](Cc2ccc(O)cc2)NC(=O)[C@H](Cc2ccccc2)NC(=O)CSC[C@@H](C(N)=O)NC(=O)[C@H](CC(C)C)NC(=O)[C@H](Cc2ccccc2)N(C)C(=O)[C@H](Cc2ccc(O)cc2)NC(=O)[C@H](Cc2c[nH]c3ccccc23)NC(=O)CNC(=O)[C@H](CO)NC(=O)[C@H](Cc2ccc(O)cc2)NC(=O)[C@H](C(C)C)NC1=O ({CH2CO}-FYLVYSGWY[NMeF]LC-NH2; thioether N-12),IC50,[9],7.2 nM
CC(C)C[C@@H]1NC(=O)[C@H](Cc2ccc(O)cc2)NC(=O)[C@H](Cc2ccccc2)NC(=O)CSC[C@@H](C(=O)NCC(N)=O)NC(=O)[C@H](CC(C)C)NC(=O)[C@H](Cc2ccccc2)N(C)C(=O)[C@H](Cc2ccc(O)cc2)NC(=O)[C@H](Cc2c[nH]c3ccccc23)NC(=O)CNC(=O)[C@H](CO)NC(=O)[C@H](Cc2ccc(O)cc2)NC(=O)[C@H](C(C)C)NC1=O ({CH2CO}-FYLVYSGWY[NMeF]LCG-NH2; thioether N-12),Kd,[2],43 nM
same,Activity,[5],Active
same,half-life,[10],> 1440 min
same,half-life,[11],> 1440 min
same,Activity,MIA PaCa-2,inactive
same,Activity,[3],Active
same,Activity,[12],Active
same,Activity,[7],68%
same,Activity,[8],104%
CC(C)C[C@@H]1NC(=O)[C@H](Cc2ccc(O)cc2)NC(=O)[C@H](Cc2ccccc2)NC(=O)CSC[C@@H](C(=O)NCC(=O)NCC(=O)NCC(=O)NCC(=O)O)NC(=O)[C@H](CC(C)C)NC(=O)[C@H](Cc2ccccc2)N(C)C(=O)[C@H](Cc2ccc(O)cc2)NC(=O)[C@H](Cc2c[nH]c3ccccc23)NC(=O)CNC(=O)[C@H](CO)NC(=O)[C@H](Cc2ccc(O)cc2)NC(=O)[C@H](C(C)C)NC1=O ({CH2CO}-FYLVYSGWY[NMeF]LCGGGG-OH; thioether N-12),EC50,ASPC1,76.6 nM
same,EC50,JeKo-1,89 nM
same,EC50,HEK293,55.3 nM
same,EC50,786-0,63.7 nM
CCCN(C(=O)[C@@H](NC(=O)[C@H]1CCCCN1C)[C@@H](C)CC)[C@H](C[C@@H](OC(C)=O)c1nc(C(=O)N[C@@H](Cc2ccc(NC(=O)[C@H](CCCNC(N)=O)NC(=O)[C@@H](NC(=O)CCCCCN3C(=O)CC(SC[C@H](NC(=O)CNC(=O)CNC(=O)CNC(=O)CNC(=O)[C@@H]4CSCC(=O)N[C@@H](Cc5ccccc5)C(=O)N[C@@H](Cc5ccc(O)cc5)C(=O)N[C@@H](CC(C)C)C(=O)N[C@@H](C(C)C)C(=O)N[C@@H](Cc5ccc(O)cc5)C(=O)N[C@@H](CO)C(=O)NCC(=O)N[C@@H](Cc5c[nH]c6ccccc56)C(=O)N[C@@H](Cc5ccc(O)cc5)C(=O)N(C)[C@@H](Cc5ccccc5)C(=O)N[C@@H](CC(C)C)C(=O)N4)C(N)=O)C3=O)C(C)C)cc2)C[C@H](C)C(=O)O)cs1)C(C)C (some centres not stated) ({CH2CO}-FYLVYSGWY[NMeF]LCGGGGC(X2)-NH2; thioether N-12),EC50,ASPC1,145 nM
same,EC50,JeKo-1,334 nM
same,EC50,HEK293,27.3 nM
same,EC50,786-0,154 nM
CC(C)C[C@@H]1NC(=O)[C@H](Cc2ccc(O)cc2)NC(=O)[C@H](Cc2ccccc2)NC(=O)CSC[C@@H](C(=O)NCC(N)=O)NC(=O)[C@H](CC(C)C)NC(=O)[C@H](Cc2ccccc2)N(C)C(=O)[C@H](Cc2ccc(O)cc2)NC(=O)[C@H](Cc2c[nH]c3ccccc23)NC(=O)CNC(=O)[C@H](Cc2ccc(O)cc2)NC(=O)[C@H](Cc2ccc(O)cc2)NC(=O)[C@H](C(C)C)NC1=O ({CH2CO}-FYLVYYGWY[NMeF]LCG-NH2; thioether N-12),IC50,[9],8.6 nM
CC(C)C[C@@H]1NC(=O)[C@H](Cc2ccccc2)N(C)C(=O)[C@H](Cc2ccc(O)cc2)NC(=O)[C@H](Cc2c[nH]c3ccccc23)NC(=O)CNC(=O)[C@H](CO)NC(=O)[C@H](Cc2ccc(O)cc2)NC(=O)[C@H](C(C)C)NC(=O)[C@@H]2CCCN2C(=O)[C@H](Cc2ccc(O)cc2)NC(=O)[C@H](Cc2ccccc2)NC(=O)CSC[C@@H](C(=O)NCC(N)=O)NC1=O ({CH2CO}-FYPVYSGWY[NMeF]LCG-NH2; thioether N-12),IC50,[9],5.2 nM
CC(C)C[C@@H]1NC(=O)[C@H](Cc2ccccc2)N(C)C(=O)[C@H](Cc2ccc(O)cc2)NC(=O)[C@H](Cc2c[nH]c3ccccc23)NC(=O)CNC(=O)[C@H](CO)NC(=O)[C@H](Cc2ccc(O)cc2)NC(=O)[C@H](C(C)C)NC(=O)[C@H](CCCNC(=N)N)NC(=O)[C@H](Cc2ccc(O)cc2)NC(=O)[C@H](Cc2ccccc2)NC(=O)CSC[C@@H](C(=O)NCC(N)=O)NC1=O ({CH2CO}-FYRVYSGWY[NMeF]LCG-NH2; thioether N-12),IC50,[9],6.3 nM
CN1CC(=O)N[C@@H](CO)C(=O)N[C@@H](Cc2ccc(-c3ccccc3)cc2)C(=O)NCC(=O)N[C@@H](CCCNC(=N)N)C(=O)N[C@@H](CCCNC(=N)N)C(=O)N[C@@H](CCCNC(=N)N)C(=O)NCC(=O)N[C@H](C(=O)NCC(N)=O)CSCC(=O)N[C@@H](Cc2ccccc2)C(=O)N[C@@H](Cc2ccc(O)cc2)C1=O ({CH2CO}-FY[Sar]S[Bip]GRRRGCG-NH2; thioether N-11),Kd,[1],3 nM
same,Kd,[2],> 100 nM
same,Activity,[5],inactive
same,half-life,[11],1440 min
same,half-life,[13],66 min
same,half-life,[14],31 min
same,Activity,[7],125%
same,Activity,[8],114%
CC(C)C[C@@H]1NC(=O)[C@H](Cc2ccc(O)cc2)NC(=O)[C@H](Cc2c[nH]c3ccccc23)NC(=O)CSC[C@@H](C(=O)NCC(N)=O)NC(=O)[C@H](CC(C)C)NC(=O)[C@H](Cc2ccccc2)N(C)C(=O)[C@H](Cc2ccc(O)cc2)NC(=O)[C@H](Cc2c[nH]c3ccccc23)NC(=O)CNC(=O)[C@H](CO)NC(=O)[C@H](Cc2ccc(O)cc2)NC(=O)[C@H](C(C)C)NC1=O ({CH2CO}-WYLVYSGWY[NMeF]LCG-NH2; thioether N-12),IC50,[9],2.2 nM
same,Activity,[3],Active
same,Activity,[12],Active
CC[C@H](C)[C@H](NC(=O)[C@H]1CCCCN1C)C(=O)N(COC(=O)CC(C)C)[C@H](C[C@@H](OC(C)=O)c1nc(C(=O)N[C@@H](Cc2ccc(C)cc2)C[C@H](C)C(=O)O)cs1)C(C)C [TUBULYSIN],EC50,786-0,0.57 nM
